System: QBC939/ADM
Assay: CCK-8 assay of cytotoxicity of targeted drugs with or without ginsenoside composition in drug-resistant cells
Type: cell-based, Human
Conditions: 24 h
Description: 1. Materials and Methods Human cholangiocarcinoma cell line QBC939, purchased from Shanghai Honshun Biological Technology Co., Ltd.
The human cholangiocarcinoma cell line QBC939 was thawed and inoculated into T25 cell culture flasks filled with cell culture medium, and QBC939/ADM was constructed by continuously increasing the contact concentration of ADM.
The cells were divided into a blank zeroed control group, a normal control group and 9 experimental groups, each containing 100 μL of 80 μg/mL ginsenoside composition for cell culturing.
The control group (chemotherapeutic drug group): 100 μL of culture medium containing chemotherapeutic drugs was added to each well. The chemotherapeutic drugs included the targeted drugs afatinib (400 μg/mL), ceritinib (1000 μg/mL) and erlotinib (200 μg/mL). Six replicate wells were set up for each drug.
The experimental group (chemotherapeutic drugs+traditional Chinese medicine): 100 μL of culture medium containing chemotherapeutic drugs+ginsenoside composition was added to each well, namely afatinib (400 μg/mL)+ginsenoside composition (80 μg/mL), ceritinib (1000 μg/mL)+ginsenoside composition (80 μg/mL), and erlotinib (200 μg/mL)+ginsenoside composition (80 μg/mL). Six replicate wells were set up for each drug.
The cytotoxic effects of the chemotherapeutic drugs were detected 24 h later.

`CN(C)C/C=C/C(=O)Nc1cc2c(Nc3ccc(F)c(Cl)c3)ncnc2cc1O[C@H]1CCOC1` [afatinib] was tested, and the “Absorbance value (OD, CCK-8), Afatinib” value (control group: afatinib 400 μg/mL alone) was 1.179 ± 0.147.

In the case of `Cc1cc(Nc2ncc(Cl)c(Nc3ccccc3S(=O)(=O)C(C)C)n2)c(OC(C)C)cc1C1CCNCC1` [ceritinib], the “Absorbance value (OD, CCK-8), Ceritinib” value (control group: ceritinib 1000 μg/mL alone) is reported as 1.304 ± 0.096.

For `C#Cc1cccc(Nc2ncnc3cc(OCCOC)c(OCCOC)cc23)c1` [erlotinib], the “Absorbance value (OD, CCK-8), Erlotinib” value (control group: erlotinib 200 μg/mL alone) was 1.294 ± 0.131.

Reference: patent US20230321125A1, “COMPOSITIONS OF GINSENOSIDE RG3 AND GINSENOSIDE RG5 AND THEIR PHARMACEUTICAL USES INCLUDING ANTI-TUMOR EFFECTS” (DALIAN FUSHENG NATURAL MEDICINE DEVELOPMENT CO., LTD., priority 2020, published 2023)
